Data on 2 compounds can be found in patent US7538072B2, “Stem/leaf desiccant” (Sumitomo Chemical Company, Limited, priority 2001, dated 2009).

One data set relates to potato plants. The data set can be described thus: Field test of desiccant effect on potato plants (foliar spray before harvest). The data set is classed as in vivo. To be noted: application amount 10 g/ha; emulsifiable concentrate diluted with water containing 1% (v/v) crop oil concentrate, sprayed at the time of foliage turning yellow; examined 14 day after treatment; average of 3 sections. The source says: Seed potatoes were planted on a field and grown. At the time of the foliage turning yellow, 2.5 parts of each of compounds a-5 and a-6, 10 parts of Sorpol 3890 (Toho Chemical Industry Co., Ltd.), and 87.5 parts of SOLVESSO 200 (Exxon Mobile Chemical Company) were well mixed to give an emulsifiable concentrate for each compound, diluted at a prescribed dose with water containing 1% (v/v) crop oil concentrate (COC), and the dilution was uniformly sprayed to the plants. One section of the treated field are 2.1×15.2 m in area, and the potato plants on 14 day after the treatment were examined for the desiccant effect. In the table, the desiccation effect was evaluated with following criteria.
1: The desiccated area of foliage is 0 to 29%
2: The desiccated area of foliage is 30 to 69%
3: The desiccated area of foliage is 70 to 89%
4: The desiccated area of foliage is 90 to 99%
5: The desiccated area of foliage is 100%
The treatment was done in 3 sections, the result was indicated with an average of the 3 sections.

`COC(=O)COc1ccccc1Oc1cc(-n2c(=O)cc(C(F)(F)F)n(C)c2=O)c(F)cc1Cl` [Compound a-5, methyl [2-{2-chloro-4-fluoro-5-[3-methyl-2,6-dioxo-4-(trifluoromethyl)-1,2,3,6-tetrahydropyrimidin-1-yl]phenoxy}phenoxy]acetate]: in the data set on potato plants, the Desiccation effect is 5 (The desiccated area of foliage is 100%).

On to `COC(=O)COc1ncccc1Oc1cc(-n2c(=O)cc(C(F)(F)F)n(C)c2=O)c(F)cc1Cl` [Compound a-6, methyl [3-{2-chloro-4-fluoro-5-[3-methyl-2,6-dioxo-4-(trifluoromethyl)-1,2,3,6-tetrahydropyrimidin-1-yl]phenoxy}-2-pyridyloxy]acetate], for which the melting point was 52.2 °C. Further, in the data set with potato plants, the Desiccation effect is on record as 5 (The desiccated area of foliage is 100%).
